Measurements published in PubChem BioAssay (NCI).
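48-hour exposure; five concentrations; linearly interpolated endpoints. GI50 marks 50% less growth. Definition used: TGI = concentration required for complete inhibition of growth.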

Legend:
Experiment in all cases: NCI tumour cell line growth inhibition, 48 h
[1] = tested on: ACHN renal
[2] = tested on: COLO 205 colon
[3] = tested on: HOP-62 NSCLC
[4] = tested on: HT29 colon
[5] = tested on: NCI-H226 lung
[6] = tested on: U251 CNS
[7] = tested on: UACC-257 melanoma
[8] = tested on: CCRF-CEM leukemia
[9] = tested on: SK-MEL-5 melanoma
[10] = tested on: SR leukemia

Row | Compound | TGI [1] [µM] | TGI [2] [µM] | TGI [3] [µM] | TGI [4] [µM] | TGI [5] [µM] | TGI [6] [µM] | TGI [7] [µM] | TGI [8] [µM] | TGI [9] [µM] | GI50 [1] [µM] | GI50 [8] [µM] | GI50 [2] [µM] | GI50 [3] [µM] | GI50 [4] [µM] | GI50 [5] [µM] | GI50 [9] [µM] | GI50 [6] [µM] | GI50 [7] [µM] | GI50 [10] [µM] | TGI [10] [µM]
1 | Cc1ccc(NC(=O)C(=O)Cc2nc3ccccc3o2)c(C)c1 | > 100 | > 100 | > 100 | > 100 | > 100 | > 100 | > 100 |  |  |  |  |  |  |  |  |  |  |  |  | 
2 | O=Cc1coc2ccccc2c1=O | 45.2 | 30.4 | 43.8 | 46.1 | 84.4 | 65.2 | 46.7 | 69.7 | 39 |  |  |  |  |  |  |  |  |  |  | 
3 | Cc1cc(C)nc(NS(=O)(=O)c2ccc(NC(=O)c3cccc4cc5ccccc5nc34)cc2)n1 | > 100 | > 100 | > 100 | > 100 | 46.5 | > 100 | > 100 | 77.5 | > 100 |  |  |  |  |  |  |  |  |  |  | 
4 | CCNCCNc1cc(-c2ccc(F)cc2)c(C#N)c2nc3ccccc3n12 | 3.51 | 5.74 | 32.8 | 11 | 27 | 5.05 | 3.82 | 6.52 | 3.18 | 1.87 | 2.77 | 2.32 | 18.2 | 3.06 | 12 | 1.74 | 2.41 | 2.1 |  | 
5 | Fc1ccc(-c2ncn(C3CCNCC3)c2-c2ccnc(Oc3cccc(F)c3)n2)cc1 | > 25 | 9.67 | > 25 | 8.6 |  | > 25 |  |  | 8.73 | 8.58 |  | 5.09 | > 21.8 | 4.5 |  | 4.04 | 9.74 |  |  | 
6 | O=C1C(c2ccccc2)=C(c2ccccc2)C(c2ccc(CCCCCCc3ccc(C4=C(c5ccccc5)C(=O)C(c5ccccc5)=C4c4ccccc4)cc3)cc2)=C1c1ccccc1 | > 100 | > 100 | > 100 | > 100 |  | > 100 | > 100 | > 100 | > 100 |  |  |  |  |  |  |  |  |  |  | 
7 | COc1ccc(NC(=O)C(=O)C2NC(=S)NC2=O)c(OC)c1 (centres undefined) | > 100 | > 100 | > 100 | > 100 | > 100 | > 100 | > 100 |  |  |  |  |  |  |  |  |  |  |  |  | 
8 | O=[As](O)(O)c1ccc(Cc2ccc([As](=O)(O)O)cc2)cc1 | 2.31 | 1.9 | 3.6 | 2.38 | 7.7 | 1.51 | 1.3 | 1.05 | 1.89 |  |  |  |  |  |  |  |  |  |  | 
9 | Cn1ccnc1C(=O)/C=C/c1ccc(C(=O)Nc2nc3ccccc3[nH]2)cc1 | > 25 |  | > 25 | > 25 |  | > 25 | > 25 | > 25 | > 25 | 11 | 1.28 |  | 6.42 | 1.01 |  | 18.4 | 0.916 | > 25 | 0.956 | > 25
10 | N#Cc1nc(-c2ccccc2)oc1S(=O)(=O)N1CCOCC1 | 3.15 | 4.91 | > 100 | 25.4 | 16.1 | 42.2 | 19 | 14.6 | 17.3 | 1.76 | 1.73 | 2.23 | 34.7 | 4.82 | 3.67 | 5.23 | 17.7 | 4.74 |  | 
11 | CC1OC(O)C(O)C(O)C1O (centres undefined) | > 100 | > 100 | > 100 | > 100 | > 100 | > 100 | > 100 |  | > 100 |  |  |  |  |  |  |  |  |  |  | 
12 | Cc1ccc(Nc2ccc(Nc3ccc(C)cc3)c3c2C(=O)c2c(O)ccc(O)c2C3=O)cc1 | > 100 | > 100 | > 100 |  |  | > 100 | > 100 | > 100 | > 100 |  |  |  |  |  |  |  |  |  |  | 
13 | O=[N+]([O-])c1ccccc1C1N2CCCCC2[C@@H]2c3[nH]c4ccccc4c3CCN12 (some centres undefined) | 31.3 | 25.8 | 29.2 | 20.8 |  | 31.3 | 26.7 | 30.4 | 26.2 |  |  |  |  |  |  |  |  |  |  | 
14 | Cc1nc(C(N)=S)sc1C(=O)/C=C/c1cccc(O)c1 | > 100 | > 100 | > 100 | > 100 | > 100 | > 100 | > 100 | 89.2 | > 100 |  |  |  |  |  |  |  |  |  |  | 
15 | Fc1ccccc1C1CC(C(c2ccccc2)c2ccccc2)=Nc2ccccc2S1 (centres undefined) | 43.6 | 27.9 | 26.9 | 26.3 | 32.6 | 25.5 | 30.6 | 5.57 | 24.9 |  |  |  |  |  |  |  |  |  |  | 
16 | COC(=O)C1(Cc2cccc(Cl)c2)CCCCCCN1C(=O)c1ccccc1 (centres undefined) | 30 | 38.7 | 29 | 32.1 | 48.8 | 29.7 |  | 31.6 | 26.6 |  |  |  |  |  |  |  |  |  |  | 39.8
17 | CCCCCCCCCC(=O)CC(=O)c1c(O)cccc1O | 83.4 | 35.8 | > 100 | 65.8 | 70.2 | 69.3 | > 100 | 61 |  |  |  |  |  |  |  |  |  |  |  | 
18 | C=C(C)[C@H]1CC/C(C)=C/CCC(C)C(=O)CC/C(CO)=C\[C@@H]1O (some centres undefined) | > 100 | > 100 | > 100 |  | > 100 | > 100 | > 100 | > 100 | > 100 | > 100 | 44.6 | > 100 | > 100 |  | > 100 | 40.7 | 90.3 | > 100 | > 100 | > 100
19 | C=C(C)C1/C=C(/C(C)C)CC[C@]2(C)O[C@@H]2CC[C@H](C)CC1=O (some centres undefined) | > 100 | > 100 | > 100 |  | > 100 | > 100 |  | 37.3 | > 100 | 72.4 | 18.5 | 54.5 | 76 |  | > 100 | 55 | 54.7 |  | 19.2 | 58.5
20 | COc1ccc(C(Nc2ncccn2)c2cc3c(cc2O)OCO3)cc1 (centres undefined) | > 100 | 70.6 | 54.5 | 58.4 | 44.6 | 28.7 | 36.4 |  | 50.9 |  |  |  |  |  |  |  |  |  |  | 32.4
